Data on 13 molecules can be found in patent publication US20020013306A1, “TERPYRIDINE-PLATINUM(II) COMPLEXES” (priority 1996, published 2002).

For assay [1], the system named is CH1 human ovarian carcinoma cell line. The assay is described as follows: 96 h growth inhibition, sulforhodamine B assay, CH1. The note with it: 96 h exposure, v = variable (mean). Type of assay: cell-based.
Assay [2] has as its system CH1cis^R human ovarian carcinoma cell line (cisplatin resistant). The assay is described as follows: 96 h growth inhibition, sulforhodamine B assay, CH1cisR. Type of assay: cell-based. The settings on record: for IC50: 96 h exposure, growth inhibition, v = variable (mean); for RF resistance factor: IC50 resistant line/IC50 parent line: CH1cis^R / CH1. For orientation: In SRB staining, fixed cells bind dye roughly in proportion to their protein.

The test system of assay [3] is CH1dox^R human ovarian carcinoma cell line (doxorubicin resistant). Kind of assay: 96 h growth inhibition, sulforhodamine B assay, CH1doxR. In kind it is cell-based. The settings on record: for IC50: 96 h exposure, growth inhibition; for RF resistance factor: IC50 resistant line/IC50 parent line: CH1dox^R / CH1.
For assay [4], the system named is A2780 human ovarian carcinoma cell line. Kind of assay: 96 h growth inhibition, sulforhodamine B assay, A2780. The note with it: 96 h exposure, v = variable (mean). In kind it is cell-based.
Assay [5] deals with A2780cis^R human ovarian carcinoma cell line (cisplatin resistant). Kind of assay: 96 h growth inhibition, sulforhodamine B assay, A2780cisR. Type of assay: cell-based. The note with it: for IC50: 96 h exposure, growth inhibition, v = variable (mean); for RF resistance factor: IC50 resistant line/IC50 parent line: A2780cis^R / A2780.
For assay [6], the system named is SKOV3 human ovarian carcinoma cell line. The assay is described as follows: 96 h growth inhibition, sulforhodamine B assay, SKOV3. In kind it is cell-based. The note with it: 96 h exposure, v = variable (mean).
For the next assay, the system named is T. cruzi (MHOM/BR/00/Y). The assay is described as follows: Trypanosoma cruzi in mouse peritoneal macrophages. In kind it is cell-based. The protocol: Trypanosoma cruzi: […] Drug activity was determined from the % of infected macrophages in treated cultures. Nifurtimox was used as the positive control.
For assay [7], the system named is T. brucei (S427) bloodstream trypomastigotes. Kind of assay: Trypanosoma brucei bloodstream trypomastigote culture. In kind it is cell-based.
For assay [8], the system named is P falciparum (chloroquin resistant strain K1). Kind of assay: In vitro antimalarial activity, chloroquine resistant K1. The settings on record: for % Inhibition, MQ, K1 P. falciparum: duplicates.
Method: Plasmodium falciparum: P falciparum (chloroquin resistant strain K1) was cultured at 37° C. in a 5% suspension of infected so erythrocytes (group A Rh^+) in complete medium as described by E L Elueze, S L Croft and D C Warhurst, J Antimicrobial Chemotherapy, 1996, 37, 511-518. The in vitro antimalarial activity of compounds were likewise determined according to their protocol. Mefloquin was used as the positive control.”

“And” between values parts separate entries of the source, which are not always exact repeats. Identical values can stand only once. Like-named read-outs stand apart in the source and are kept apart here.

One may read the IC50 as the concentration at which inhibition is half-maximal. On to `CC(=O)c1cc[n+]([Pt-2]23[n+]4ccccc4-c4cccc([n+]42)-c2cccc[n+]23)cc1.F[B-](F)(F)F.F[B-](F)(F)F` [Compound A2], for which the IC50 in assay [1] was 2.2 µM; in assay [2] it was 2.3 µM; in assay [3], 1.18 µM; in assay [4], 5.9 µM; in [5], 7.5 µM; in assay [6], 11.1 µM. Besides, the results for the “RF resistance factor: IC50 resistant line/IC50 parent line” value (from here on “RF resistance factor”) in [2], in [3] and in assay [5] were 1.05, 0.54 and 1.25, respectively. In the assay with T. cruzi (MHOM/BR/00/Y) (1 μM), the “% Inhibition, Trypanosoma cruzi” value came out at 3.8%. The “% Inhibition, Trypanosoma brucei” value in assay [7] (0.03 μM) is 50.0%; in assay [7] (0.1 μM), 62.7%; in assay [7] (0.3 μM), 86.4%; in assay [7] (1 μM) it was 100%; in [7] (3 μM), 100%; in assay [7] (10 μM) it was 100%. In assay [7] (30 μM), the “% Inhibition, Trypanosoma brucei” value is recorded as 100%.

For the molecule `CC1CS(=O)(=O)CCN1/N=C/c1ccc([N+](=O)[O-])o1` (stereo not shown) [nifurtimox, Nifurtimox, reference compound], the EC50 in the assay with T. cruzi (MHOM/BR/00/Y) (Trypanosoma cruzi, Peritoneal macrophage, read-out: ED50 against Trypanosoma cruzi) worked out at 3 µM.

On to “Ammonio 4′-chloro-2,2′:6′,2″-terpyridine platinum II tetrafluoroborate [Compound I12]”, for which the “% Inhibition, Trypanosoma brucei” value came to 0% in assay [7] (0.1 μM); 0% in assay [7] (0.3 μM); 100% in assay [7] (1 μM); 100% in assay [7] (3 μM); 100% in assay [7] (10 μM); 100% in assay [7] (30 μM).

With `Cc1ccncc1.F[B-](F)(F)F.F[B-](F)(F)F.OCCNc1cc(-c2ccccn2)nc(-c2ccccn2)c1.[Pt+2]` [U, (4-Picoline)(4′-(N-2-Hydroxyethyl)amino-2,2′:6′,2″-Terpyridine) Platinum (II) Tetrafluoroborate], the “% Inhibition, Trypanosoma cruzi” value with T. cruzi (MHOM/BR/00/Y) (1 μM) turned out to be 0%; in the assay on T. cruzi (MHOM/BR/00/Y) (3 μM) it was 0%; in the assay on T. cruzi (MHOM/BR/00/Y) (10 μM), 0%; in the assay on T. cruzi (MHOM/BR/00/Y) (30 μM), 18.0%. The “% Inhibition, Trypanosoma brucei” value came out at 0% in assay [7] (0.1 μM); 0% in [7] (0.3 μM); 0% in [7] (1 μM); 68.4% in assay [7] (3 μM); 100% in assay [7] (10 μM); 100% in assay [7] (30 μM).

For the molecule `Brc1ccc(-c2cc(-c3ccccn3)nc(-c3ccccn3)c2)cc1.F[B-](F)(F)F.F[B-](F)(F)F.N.[Pt+2]` [Compound Q12, Ammonio 4′-(4-bromophenyl)-2,2′:6′,2″-terpyridine platinum II tetrafluoroborate], the “% Inhibition, Trypanosoma brucei” value in assay [7] (0.1 μM), in assay [7] (0.3 μM), in assay [7] (1 μM), in assay [7] (3 μM), in assay [7] (10 μM) and in assay [7] (30 μM) was 100% in each case.

As for “4,4′-Vinylidenedipyridine bis[2,2′:6′,2″-terpyridine platinum II] tetrafluoroborate [Compound A14]”, the IC50 in assay [1] was 1.35 µM; in assay [2], 0.63 µM; in assay [3], 5.1 µM; in assay [4], 1.6 µM; in [5], 2.4 µM; in assay [6] it was 1.3 µM. Besides, the “RF resistance factor” value in [2] came out at 0.46; in [3] it was 3.8; in assay [5] it was 1.5.

In the case of `Brc1cc[n+]([Pt-2]23[n+]4ccccc4-c4cccc([n+]42)-c2cccc[n+]23)cc1.F[B-](F)(F)F.F[B-](F)(F)F` [Compound A1], the IC50 in assay [1] is 2.1 µM; in assay [2], 2.1 µM; in assay [3], 0.85 µM; in [4], 5.8 µM; in [5] it was 6.7 µM; in [6], 9.2 µM. For the same molecule, the results for the “RF resistance factor” value in assay [2], in assay [3] and in assay [5] were 1.0, 0.41 and 1.16, respectively. The “% Inhibition, Trypanosoma brucei” value in assay [7] (0.03 μM), in assay [7] (0.1 μM), in assay [7] (0.3 μM), in [7] (1 μM), in [7] (3 μM) and in assay [7] (10 μM) was 100% each time. Moreover, in assay [7] (30 μM), the “% Inhibition, Trypanosoma brucei” value is 100%.

As to “4-Picoline 4′-amino-2,2′:6′,2″-terpyridine platinum II tetrafluoroborate [X]”, the IC50 in assay [1] came out at 15.1 µM; in [2], 16.5 µM; in assay [3] it was 17 µM; in [4] it was 25 µM; in [5], 21 µM; in assay [6] it was 25 µM. Besides, the “RF resistance factor” value in assay [2] came to 1.1; in [3], 1.1; in [5], 0.8. Further, the “% Inhibition, Trypanosoma brucei” value in assay [7] (0.1 μM) stood at 0%; in [7] (0.3 μM), 0%; in assay [7] (1 μM), 100%; in assay [7] (3 μM), 100%; in assay [7] (10 μM), 100%; in assay [7] (30 μM), 100%.

For the molecule “4,4′-Vinylidenedipyridine bis[4′-chloro-2,2′:6′,2″-terpyridine platinum II]tetrafluoroborate [Compound I14]”, the IC50 in assay [1] came out at 15 µM; in [2], 17 µM; in [3], 7.8 µM; in assay [5] it was 19 µM; in [6], 15 µM. Also, the results for the “RF resistance factor” value in [2] and in assay [3] were 1.1 and 0.5, respectively.

For the molecule `F[B-](F)(F)F.F[B-](F)(F)F.OCc1cc[n+]([Pt-2]23[n+]4ccccc4-c4cccc([n+]42)-c2cccc[n+]23)cc1` [Compound A9], the IC50 in [1] amounted to 14 µM; in [2] it was 12.5 µM; in assay [3] it was 5 µM; in [4], 40 µM; in assay [5] it was 92 µM; in assay [6], 17 µM. Further, the entries for the “RF resistance factor” value in assay [2], in [3] and in assay [5] were 0.9, 0.3 and 2.3, respectively. The “% Inhibition, Trypanosoma brucei” value in [7] (0.1 μM) was 32.5%; in [7] (0.3 μM), 100%; in [7] (1 μM) it was 100%; in assay [7] (3 μM), 100%; in assay [7] (10 μM), 100%; in assay [7] (30 μM), 100%.

As for `N.N.[Cl][Pt][Cl]` [cisplatin, cis[Pt(NH3)2Cl2], reference compound], the IC50 in [1] stood at 0.4 µM; in assay [2], 1.2 µM; in [4], 0.53 µM; in assay [5] it was 8.8 µM; in [6], 2.25 µM.

Take “4,4′-Vinylidenedipyridine bis[4′-(4-bromophenyl)-2,2′:6′,2″-terpyridine platinum II]tetrafluoroborate [Compound Q14]”: the IC50 in [1] was 2 µM; in assay [2] it was 2.8 µM; in assay [3] it was 1.9 µM; in assay [5], 2.3 µM; in [6], 4.7 µM. Moreover, the “RF resistance factor” value is on record as 1.4 in assay [2] and 0.9 in [3].

Turning to `OC(c1cc(C(F)(F)F)nc2c(C(F)(F)F)cccc12)C1CCCCN1` (stereo not shown) [MQ, Mefloquin, reference compound], the “% Inhibition, MQ, K1 P. falciparum” value is 0% in [8] (Concn. MQ 0.015625 μM); 77.5% and 56.9% in assay [8] (Concn. MQ 0.0626 μM); 96.4% and 95.3% in assay [8] (Concn. MQ 0.5 μM); 94.9% and 91.6% in [8] (Concn. MQ 1 μM); 96.3% and 94.7% in assay [8] (Concn. MQ 2 μM); 98.0% and 97.2% in [8] (Concn. MQ 025 μM). The “% Inhibition, MQ, K1 P. falciparum” value in assay [8] (Concn. MQ 003125 μM) was 0.5% and 0%; in assay [8] (Concn. MQ) it was 93.6% and 94.8%. Besides, the IC50 in assay [8] (read-out: IC50 (avg), K1 P. falciparum, average of duplicates) is 0.06 µM; in [8] (read-out: IC50, K1 P. falciparum, each duplicate (1),(2)), 0.05 µM and 0.06 µM.
